Reference: ChEMBL document CHEMBL5223180, “Design, Synthesis, and Bioevaluation of Pyrido[2,3-d]pyrimidin-7-ones as Potent SOS1 Inhibitors” (ACS Med Chem Lett, 2023)
pIC50: −log10 of the molar value. Blank lines part the entries; values can stand above or below the molecule they belong to.

Tests used:
[1] = target: T1, Son of sevenless homolog 1 (Homo sapiens, UniProt Q07889); assay: Inhibition of 6His-tagged SOS1 (unknown origin) mediated GST-tagged KRAS G12D activation preincubated for 15 mins followed by KRAS G12D addition and measured after 30 mins by HTRF assay
T1 sequence (Q07889 whole entry): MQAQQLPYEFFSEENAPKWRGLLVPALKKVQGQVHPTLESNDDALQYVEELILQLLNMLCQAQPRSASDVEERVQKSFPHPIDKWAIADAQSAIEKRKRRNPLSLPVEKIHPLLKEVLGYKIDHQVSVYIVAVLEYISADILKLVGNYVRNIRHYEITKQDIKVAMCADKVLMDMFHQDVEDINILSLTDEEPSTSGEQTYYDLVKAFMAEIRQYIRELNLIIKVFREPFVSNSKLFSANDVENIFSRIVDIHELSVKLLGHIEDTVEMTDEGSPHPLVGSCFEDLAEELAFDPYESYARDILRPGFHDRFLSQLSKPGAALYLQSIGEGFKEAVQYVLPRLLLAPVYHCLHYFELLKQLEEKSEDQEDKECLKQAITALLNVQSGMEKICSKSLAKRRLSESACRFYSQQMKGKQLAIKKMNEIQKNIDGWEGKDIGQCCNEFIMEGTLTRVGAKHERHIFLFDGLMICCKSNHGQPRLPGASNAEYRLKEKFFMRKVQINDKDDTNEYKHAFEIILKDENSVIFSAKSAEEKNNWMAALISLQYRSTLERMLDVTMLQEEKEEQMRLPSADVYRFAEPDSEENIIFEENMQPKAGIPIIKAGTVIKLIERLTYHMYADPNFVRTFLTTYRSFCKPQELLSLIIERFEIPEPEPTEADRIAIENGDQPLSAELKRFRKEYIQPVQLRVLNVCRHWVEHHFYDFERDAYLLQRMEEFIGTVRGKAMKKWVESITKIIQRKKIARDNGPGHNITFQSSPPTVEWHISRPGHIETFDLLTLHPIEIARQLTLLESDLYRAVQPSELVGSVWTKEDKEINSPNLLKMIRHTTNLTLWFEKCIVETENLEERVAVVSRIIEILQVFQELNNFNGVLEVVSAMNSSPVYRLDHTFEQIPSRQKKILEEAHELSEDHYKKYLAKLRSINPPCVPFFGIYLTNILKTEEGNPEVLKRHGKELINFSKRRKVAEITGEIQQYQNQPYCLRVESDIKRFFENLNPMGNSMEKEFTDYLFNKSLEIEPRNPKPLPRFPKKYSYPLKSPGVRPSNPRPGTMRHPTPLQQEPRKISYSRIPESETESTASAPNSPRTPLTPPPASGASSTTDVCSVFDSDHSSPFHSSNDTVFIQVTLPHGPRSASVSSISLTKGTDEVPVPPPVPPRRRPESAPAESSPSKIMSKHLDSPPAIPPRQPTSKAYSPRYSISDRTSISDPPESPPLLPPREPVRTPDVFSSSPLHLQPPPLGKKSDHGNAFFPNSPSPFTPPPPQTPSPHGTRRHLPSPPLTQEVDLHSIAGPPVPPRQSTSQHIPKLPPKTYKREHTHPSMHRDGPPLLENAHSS

[2] = tested on: GTPase KRas (Homo sapiens), P01116 [G12D]; conditions: dose 10.0 µM
[3] = tested on: MIA PaCa-2; assay: cells; conditions: Homo sapiens, MIA PaCa-2, 168 h
[4] = target: Platelet-derived growth factor receptor alpha (Homo sapiens, UniProt P16234); assay: Inhibition of PDGFRalpha (unknown origin)
[5] = target: Fibroblast growth factor receptor 1 (Homo sapiens, UniProt P11362); assay: Inhibition of FGFR1 (unknown origin)
[6] = target: Cyclin-dependent kinase 4 (Homo sapiens, UniProt P11802); assay: Inhibition of CDK4 (unknown origin)
[7] = target: Epidermal growth factor receptor (Homo sapiens, UniProt P00533); assay: Inhibition of EGFR (unknown origin)
[8] = target: Cyclin-dependent kinase 2 (Homo sapiens, UniProt P24941); assay: Inhibition of CDK2 (unknown origin)
[9] = target: Receptor tyrosine-protein kinase erbB-2 (Homo sapiens, UniProt P04626); assay: Inhibition of HER2 (unknown origin)
Sequence of Receptor tyrosine-protein kinase erbB-2 (P04626 whole entry): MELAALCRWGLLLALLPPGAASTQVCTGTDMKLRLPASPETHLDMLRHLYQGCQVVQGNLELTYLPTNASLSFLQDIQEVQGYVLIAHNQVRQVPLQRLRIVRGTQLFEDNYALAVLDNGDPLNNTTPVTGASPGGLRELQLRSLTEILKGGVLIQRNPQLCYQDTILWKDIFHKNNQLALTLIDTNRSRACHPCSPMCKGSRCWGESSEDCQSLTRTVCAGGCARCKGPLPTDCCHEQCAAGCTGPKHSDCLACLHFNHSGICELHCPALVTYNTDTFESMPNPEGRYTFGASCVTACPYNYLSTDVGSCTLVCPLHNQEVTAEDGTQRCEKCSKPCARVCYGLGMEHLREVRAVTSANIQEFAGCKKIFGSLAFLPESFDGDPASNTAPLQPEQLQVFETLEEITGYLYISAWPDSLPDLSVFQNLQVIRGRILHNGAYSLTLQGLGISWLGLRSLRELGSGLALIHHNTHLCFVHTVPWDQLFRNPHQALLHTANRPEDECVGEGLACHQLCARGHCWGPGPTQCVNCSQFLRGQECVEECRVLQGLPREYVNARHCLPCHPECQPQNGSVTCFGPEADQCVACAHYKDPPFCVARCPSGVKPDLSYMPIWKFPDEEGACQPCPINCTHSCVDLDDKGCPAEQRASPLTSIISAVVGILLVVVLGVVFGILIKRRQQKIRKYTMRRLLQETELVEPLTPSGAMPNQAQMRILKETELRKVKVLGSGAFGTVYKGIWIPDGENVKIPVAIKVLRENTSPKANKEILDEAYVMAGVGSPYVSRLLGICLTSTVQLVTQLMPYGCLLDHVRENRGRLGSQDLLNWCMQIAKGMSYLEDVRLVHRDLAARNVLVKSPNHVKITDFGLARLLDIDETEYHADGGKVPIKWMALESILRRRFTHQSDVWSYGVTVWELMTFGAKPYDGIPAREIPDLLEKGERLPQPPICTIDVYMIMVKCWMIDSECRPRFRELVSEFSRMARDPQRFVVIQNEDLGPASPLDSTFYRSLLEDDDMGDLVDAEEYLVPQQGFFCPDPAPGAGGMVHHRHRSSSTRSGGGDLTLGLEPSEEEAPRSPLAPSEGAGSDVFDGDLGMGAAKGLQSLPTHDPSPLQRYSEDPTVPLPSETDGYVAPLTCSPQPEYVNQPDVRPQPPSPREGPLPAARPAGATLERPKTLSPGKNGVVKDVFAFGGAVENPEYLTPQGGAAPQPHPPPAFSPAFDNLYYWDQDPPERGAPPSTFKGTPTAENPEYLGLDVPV

Sequence of GTPase KRas (Homo sapiens), P01116 [G12D] (P01116 whole entry G12D, looked up): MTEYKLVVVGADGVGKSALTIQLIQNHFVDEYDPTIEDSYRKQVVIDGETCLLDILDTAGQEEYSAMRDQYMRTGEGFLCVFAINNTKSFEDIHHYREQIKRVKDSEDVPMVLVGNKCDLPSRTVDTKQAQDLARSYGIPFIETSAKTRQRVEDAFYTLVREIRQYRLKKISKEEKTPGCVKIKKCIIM
Sequence of Cyclin-dependent kinase 4 (P11802 whole entry): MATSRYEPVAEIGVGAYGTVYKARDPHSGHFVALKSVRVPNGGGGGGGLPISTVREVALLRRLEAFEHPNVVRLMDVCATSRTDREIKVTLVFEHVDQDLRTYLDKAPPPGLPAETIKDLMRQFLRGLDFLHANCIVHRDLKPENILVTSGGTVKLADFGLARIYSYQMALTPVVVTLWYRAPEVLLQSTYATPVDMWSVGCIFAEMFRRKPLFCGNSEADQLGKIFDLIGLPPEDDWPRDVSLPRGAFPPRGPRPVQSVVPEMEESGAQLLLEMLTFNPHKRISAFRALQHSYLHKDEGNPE
Sequence of Fibroblast growth factor receptor 1 (P11362 whole entry): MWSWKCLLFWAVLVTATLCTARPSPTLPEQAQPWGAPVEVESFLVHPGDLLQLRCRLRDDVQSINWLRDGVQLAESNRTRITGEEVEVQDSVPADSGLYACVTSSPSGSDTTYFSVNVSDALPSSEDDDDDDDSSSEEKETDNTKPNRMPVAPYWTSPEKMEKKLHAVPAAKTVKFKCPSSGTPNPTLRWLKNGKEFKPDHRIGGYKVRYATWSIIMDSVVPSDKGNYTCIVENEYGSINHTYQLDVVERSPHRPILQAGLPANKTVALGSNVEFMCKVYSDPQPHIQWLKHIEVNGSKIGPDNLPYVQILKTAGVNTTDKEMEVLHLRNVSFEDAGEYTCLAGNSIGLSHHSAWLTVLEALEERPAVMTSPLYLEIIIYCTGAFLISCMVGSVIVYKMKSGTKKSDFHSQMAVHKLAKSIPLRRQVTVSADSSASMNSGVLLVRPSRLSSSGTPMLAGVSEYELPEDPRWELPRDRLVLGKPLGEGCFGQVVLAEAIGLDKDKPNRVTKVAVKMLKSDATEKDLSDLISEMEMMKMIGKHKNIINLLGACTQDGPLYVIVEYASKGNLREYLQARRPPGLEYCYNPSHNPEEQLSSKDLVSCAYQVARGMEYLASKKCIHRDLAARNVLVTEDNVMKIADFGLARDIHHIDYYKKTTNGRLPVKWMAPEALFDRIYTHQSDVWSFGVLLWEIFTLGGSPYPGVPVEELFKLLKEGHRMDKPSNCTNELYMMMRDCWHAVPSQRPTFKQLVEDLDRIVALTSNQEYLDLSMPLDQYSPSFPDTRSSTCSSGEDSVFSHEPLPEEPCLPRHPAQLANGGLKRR
Sequence of Platelet-derived growth factor receptor alpha (P16234 whole entry): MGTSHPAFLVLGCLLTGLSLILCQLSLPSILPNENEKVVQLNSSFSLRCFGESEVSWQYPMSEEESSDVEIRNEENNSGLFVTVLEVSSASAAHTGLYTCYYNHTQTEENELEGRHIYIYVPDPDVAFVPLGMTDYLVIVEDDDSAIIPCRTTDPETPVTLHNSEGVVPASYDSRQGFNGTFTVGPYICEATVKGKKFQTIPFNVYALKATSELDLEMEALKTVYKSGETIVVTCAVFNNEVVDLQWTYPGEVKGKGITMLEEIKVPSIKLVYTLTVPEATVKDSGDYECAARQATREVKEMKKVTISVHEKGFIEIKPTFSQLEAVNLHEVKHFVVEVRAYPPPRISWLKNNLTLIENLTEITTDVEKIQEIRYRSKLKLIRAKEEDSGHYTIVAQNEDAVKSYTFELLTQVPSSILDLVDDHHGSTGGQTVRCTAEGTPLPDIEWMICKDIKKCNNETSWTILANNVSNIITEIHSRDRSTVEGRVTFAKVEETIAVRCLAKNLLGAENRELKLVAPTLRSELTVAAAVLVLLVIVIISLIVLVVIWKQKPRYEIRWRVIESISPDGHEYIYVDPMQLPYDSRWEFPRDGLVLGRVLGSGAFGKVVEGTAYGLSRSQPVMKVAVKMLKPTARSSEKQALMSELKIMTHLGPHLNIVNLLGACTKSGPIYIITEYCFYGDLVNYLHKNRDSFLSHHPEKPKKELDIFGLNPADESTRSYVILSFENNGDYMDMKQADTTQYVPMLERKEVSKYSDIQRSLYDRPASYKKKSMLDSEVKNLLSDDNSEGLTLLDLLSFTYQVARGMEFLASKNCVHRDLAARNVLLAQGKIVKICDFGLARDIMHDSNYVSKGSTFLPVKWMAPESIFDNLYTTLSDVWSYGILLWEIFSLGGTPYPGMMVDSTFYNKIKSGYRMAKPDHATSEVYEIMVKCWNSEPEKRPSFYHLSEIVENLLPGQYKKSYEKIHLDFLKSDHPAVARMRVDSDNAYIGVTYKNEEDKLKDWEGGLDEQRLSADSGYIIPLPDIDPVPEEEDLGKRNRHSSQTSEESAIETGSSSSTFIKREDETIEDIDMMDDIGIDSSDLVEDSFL
Sequence of Epidermal growth factor receptor (P00533 whole entry): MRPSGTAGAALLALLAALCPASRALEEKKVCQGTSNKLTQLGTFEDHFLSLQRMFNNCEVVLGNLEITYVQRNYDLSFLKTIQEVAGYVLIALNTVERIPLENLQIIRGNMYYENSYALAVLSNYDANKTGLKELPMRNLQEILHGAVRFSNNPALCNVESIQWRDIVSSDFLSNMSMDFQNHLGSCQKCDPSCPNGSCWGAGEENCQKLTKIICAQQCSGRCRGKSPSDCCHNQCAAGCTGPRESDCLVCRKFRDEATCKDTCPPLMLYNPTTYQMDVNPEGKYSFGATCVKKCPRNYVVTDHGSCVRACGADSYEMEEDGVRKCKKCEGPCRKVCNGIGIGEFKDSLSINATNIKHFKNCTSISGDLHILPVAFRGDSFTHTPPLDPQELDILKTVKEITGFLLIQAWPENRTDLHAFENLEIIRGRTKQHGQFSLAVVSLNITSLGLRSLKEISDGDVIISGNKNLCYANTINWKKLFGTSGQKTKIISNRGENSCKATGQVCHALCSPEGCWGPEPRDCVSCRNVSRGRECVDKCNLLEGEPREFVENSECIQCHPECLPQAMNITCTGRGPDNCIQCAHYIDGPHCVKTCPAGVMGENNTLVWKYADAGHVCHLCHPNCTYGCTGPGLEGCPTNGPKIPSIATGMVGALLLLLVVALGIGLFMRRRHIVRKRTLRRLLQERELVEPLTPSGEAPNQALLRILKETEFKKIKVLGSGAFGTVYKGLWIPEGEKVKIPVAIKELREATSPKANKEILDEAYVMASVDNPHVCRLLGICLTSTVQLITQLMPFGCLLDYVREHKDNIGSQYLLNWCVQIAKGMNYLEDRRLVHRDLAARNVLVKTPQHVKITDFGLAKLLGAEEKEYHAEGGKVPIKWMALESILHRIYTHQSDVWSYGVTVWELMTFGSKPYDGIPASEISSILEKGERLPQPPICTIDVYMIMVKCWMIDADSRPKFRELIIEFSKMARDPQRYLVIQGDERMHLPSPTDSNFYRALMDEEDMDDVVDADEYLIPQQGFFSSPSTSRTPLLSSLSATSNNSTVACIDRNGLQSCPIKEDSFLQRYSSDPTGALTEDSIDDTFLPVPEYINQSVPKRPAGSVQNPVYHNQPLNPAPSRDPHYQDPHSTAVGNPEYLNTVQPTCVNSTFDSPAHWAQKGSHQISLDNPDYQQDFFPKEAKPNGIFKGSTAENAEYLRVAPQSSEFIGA

Compound: C[C@@H](Nc1ncnc2c1cc(N)c(=O)n2C)c1cc(N)cc(C(F)(F)F)c1
pIC50 [1]: < 5.30

Compound: C[C@@H](Nc1ncnc2c1ccc(=O)n2C)c1cc(N)cc(C(F)(F)F)c1
pIC50 [1]: < 5.30

Compound: CC(=O)N1CCC(c2cc3c(Nc4cccc(C(F)(F)F)c4)ncnc3n(C)c2=O)CC1
pIC50 [1]: < 5.30

Compound: COc1cc2nc(C)nc(N[C@H](C)c3cc(N)cc(C(F)(F)F)c3)c2cc1O[C@H]1CCOC1
ΔTm [2]: 0 °C
pIC50 [3]: 7.52

Other lines, results leading:

pIC50 [1]: < 5.30
Compound: C[C@@H](Nc1ncnc2c1cc(NC1CCCCC1)c(=O)n2C)c1cc(N)cc(C(F)(F)F)c1

pIC50 [1]: < 5.30
Compound: CC(=O)Nc1cc2c(N[C@H](C)c3cc(N)cc(C(F)(F)F)c3)ncnc2n(C)c1=O

pIC50 [4]: < 5.00
pIC50 [5]: < 5.00
pIC50 [6]: < 5.00
pIC50 [7]: < 5.00
pIC50 [8]: < 5.00
pIC50 [9]: < 5.00
Compound: CC(=O)N1CCC(c2cc3c(N[C@H](C)c4cc(N)cc(C(F)(F)F)c4)nc(C)nc3n(C)c2=O)CC1
